Reference: patent US20250041232A1, “MICROSPHERES COMPRISING HIGH-DOSE VARENICLINE, METHOD FOR PREPARING SAME, AND PHARMACEUTICAL COMPOSITION COMPRISING SAME” (AULBIO CO., LTD., priority 2021, published 2025)

Experiment: Measurement of varenicline loading amount and encapsulation efficiency in microspheres (HPLC)
Format: physicochemical
Settings: microspheres dissolved in acetonitrile/80% methanol, HPLC-UV
Description: About 10 mg of the microspheres prepared in Example 2 and Comparative Examples 1 and 2 were taken, placed in a 20 mL flask, and completely dissolved in 2 mL of acetonitrile (manufacturer: Honeywell). It was adjusted to the mark with 80% methanol (manufacturer: Honeywell) and filtered through a 0.45 μm syringe filter. This solution was detected with an ultraviolet-visible spectrophotometer using HPLC (equipment name: Agilent). L1 (inner diameter 4.6 mm×150 mm, thickness 5 μm) was used as the column.

Substance: varenicline pamoate salt
- Encapsulation efficiency (%): more than 90%
